What all share (test): pIC50, kinobeads binding competition
One experiment deals with T1, SGK2 (UniProt Q9HBY8).
T1 sequence (whole entry): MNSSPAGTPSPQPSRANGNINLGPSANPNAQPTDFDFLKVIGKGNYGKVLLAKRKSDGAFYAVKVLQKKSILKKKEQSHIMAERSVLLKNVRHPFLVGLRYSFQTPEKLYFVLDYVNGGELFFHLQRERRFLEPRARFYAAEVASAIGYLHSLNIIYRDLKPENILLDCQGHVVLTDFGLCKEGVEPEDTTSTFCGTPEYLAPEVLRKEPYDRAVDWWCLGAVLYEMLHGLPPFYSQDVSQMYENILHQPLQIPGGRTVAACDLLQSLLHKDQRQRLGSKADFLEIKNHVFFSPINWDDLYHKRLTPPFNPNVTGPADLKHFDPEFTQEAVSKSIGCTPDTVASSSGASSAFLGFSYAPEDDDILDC
The note with it: cell material: Lysate mix. The method, boiled down:
(§1)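 pIC50 was obtained by fitting fold changes against vehicle to logistic dose-response curves with the R drc package, using biological duplicates. Kinobeads-bound proteins were digested and measured by TMT10 LC-MS/MS. Before this, either living Jurkat cells received nine compound concentrations (top 30 μM, 1:4 steps) for 60 min at 37 °C prior to lysis, or Jurkat lysate or a 1:1:1:1 HEK293/K-562/HepG2/placenta lysate mix received nine concentrations (top 30 μM, 1:5 steps) for 60 min at 4 °C.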

For the next experiment, the target named is T2, UniProt Q99759.
T2 sequence (whole entry): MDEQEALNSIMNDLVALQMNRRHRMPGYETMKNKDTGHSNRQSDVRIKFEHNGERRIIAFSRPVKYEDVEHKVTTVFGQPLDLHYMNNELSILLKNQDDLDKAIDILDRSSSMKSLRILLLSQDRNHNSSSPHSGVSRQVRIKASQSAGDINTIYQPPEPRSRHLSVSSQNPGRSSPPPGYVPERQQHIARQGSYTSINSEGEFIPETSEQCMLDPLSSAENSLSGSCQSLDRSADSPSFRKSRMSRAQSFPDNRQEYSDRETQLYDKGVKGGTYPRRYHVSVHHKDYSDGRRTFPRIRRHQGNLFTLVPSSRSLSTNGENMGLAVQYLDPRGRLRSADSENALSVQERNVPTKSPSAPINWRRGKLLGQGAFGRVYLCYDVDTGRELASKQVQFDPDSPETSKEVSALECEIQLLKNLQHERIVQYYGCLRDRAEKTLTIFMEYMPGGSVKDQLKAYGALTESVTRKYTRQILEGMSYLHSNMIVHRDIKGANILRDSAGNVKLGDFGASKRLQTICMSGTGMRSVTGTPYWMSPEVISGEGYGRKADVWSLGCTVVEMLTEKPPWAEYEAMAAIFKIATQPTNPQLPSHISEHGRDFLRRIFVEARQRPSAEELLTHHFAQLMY
The method, boiled down: as §1

The target of a further experiment is CDK4 (UniProt P11802). The note with it: cell material: Lysate mix. In short, it runs like this:
as §1

For the next experiment, the target named is T3, UniProt Q14164.
T3 sequence (whole entry): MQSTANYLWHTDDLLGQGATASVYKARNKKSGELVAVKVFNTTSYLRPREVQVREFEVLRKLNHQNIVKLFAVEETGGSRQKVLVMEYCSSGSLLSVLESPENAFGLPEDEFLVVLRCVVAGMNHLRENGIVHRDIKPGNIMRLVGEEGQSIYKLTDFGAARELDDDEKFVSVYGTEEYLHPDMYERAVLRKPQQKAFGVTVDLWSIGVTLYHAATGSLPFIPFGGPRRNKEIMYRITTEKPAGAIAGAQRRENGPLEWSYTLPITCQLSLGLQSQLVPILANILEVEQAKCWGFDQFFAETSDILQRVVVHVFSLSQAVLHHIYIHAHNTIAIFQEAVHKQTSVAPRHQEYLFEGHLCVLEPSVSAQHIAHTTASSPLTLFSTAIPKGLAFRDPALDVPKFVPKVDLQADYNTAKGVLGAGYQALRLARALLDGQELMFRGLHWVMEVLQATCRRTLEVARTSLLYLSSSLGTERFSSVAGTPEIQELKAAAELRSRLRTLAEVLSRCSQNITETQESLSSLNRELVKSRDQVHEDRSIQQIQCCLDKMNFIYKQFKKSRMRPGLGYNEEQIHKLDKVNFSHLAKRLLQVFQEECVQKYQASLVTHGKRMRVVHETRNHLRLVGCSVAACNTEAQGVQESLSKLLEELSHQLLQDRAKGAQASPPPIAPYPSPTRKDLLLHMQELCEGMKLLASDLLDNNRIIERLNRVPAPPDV
The method, boiled down:
as §1

A further experiment concerns the target T4, IRAK3 (UniProt Q9Y616).
T4 sequence (whole entry): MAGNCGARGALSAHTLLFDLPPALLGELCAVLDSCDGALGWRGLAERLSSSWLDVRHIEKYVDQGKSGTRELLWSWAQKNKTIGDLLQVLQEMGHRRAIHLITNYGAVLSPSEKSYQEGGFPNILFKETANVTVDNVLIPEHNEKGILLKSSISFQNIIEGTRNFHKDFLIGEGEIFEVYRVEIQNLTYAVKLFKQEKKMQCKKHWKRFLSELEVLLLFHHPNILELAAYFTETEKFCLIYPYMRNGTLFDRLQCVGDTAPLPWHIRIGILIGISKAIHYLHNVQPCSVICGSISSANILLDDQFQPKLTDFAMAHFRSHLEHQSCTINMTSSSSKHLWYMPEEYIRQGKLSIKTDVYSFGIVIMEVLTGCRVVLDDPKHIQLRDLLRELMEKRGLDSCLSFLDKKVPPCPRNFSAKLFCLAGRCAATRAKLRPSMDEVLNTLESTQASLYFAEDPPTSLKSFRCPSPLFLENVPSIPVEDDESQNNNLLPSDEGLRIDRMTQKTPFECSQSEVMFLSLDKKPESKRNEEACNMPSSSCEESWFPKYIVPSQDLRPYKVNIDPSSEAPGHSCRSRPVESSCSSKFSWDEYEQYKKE
The following applies: cell material: Lysate mix. The method, boiled down: as §1

What is called pIC50 is −log10 of the IC50, conventionally taken in molar units. Lower therefore signals a high IC50.

The structures appear in SMILES notation.

Chain of CDK4 (P11802 whole entry): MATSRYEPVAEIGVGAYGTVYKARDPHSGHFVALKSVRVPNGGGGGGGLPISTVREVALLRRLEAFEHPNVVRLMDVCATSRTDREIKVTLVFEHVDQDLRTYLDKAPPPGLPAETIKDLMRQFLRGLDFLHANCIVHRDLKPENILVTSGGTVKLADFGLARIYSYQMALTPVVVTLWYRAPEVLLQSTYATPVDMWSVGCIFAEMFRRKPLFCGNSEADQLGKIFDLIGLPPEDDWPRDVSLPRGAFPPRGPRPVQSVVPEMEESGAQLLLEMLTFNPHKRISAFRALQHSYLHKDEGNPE

For `Cc1cc(Nc2cc(C(=O)NCCNC(=O)OC3CC/C=C/CCC3)nc(N3CCN(Cc4ccc(S(=O)(=O)F)cc4)CC3)n2)n[nH]1` (stereo not given), the negative-log IC50 (pIC50) on SGK2, at UniProt Q99759 (cell material: Lysate mix), on CDK4 and at UniProt Q14164 (cell material: Lysate mix) was less than 4.52 in each case.
For `C#CCNC(=O)c1cc(Nc2cc(C3CC3)[nH]n2)nc(N2CCN(Cc3ccc(S(=O)(=O)F)cc3)CC2)n1`, the pIC50 on IRAK3 is less than 4.52; at SGK2, 6.52; on UniProt Q99759 (cell material: Jurkat cells), 5.8; on UniProt Q99759 (cell material: Jurkat lysate) it was 4.72; on UniProt Q99759 (cell material: Lysate mix) it was 5.16; at UniProt Q14164 (cell material: Jurkat cells), 6. Besides, the negative-log IC50 (pIC50) on UniProt Q14164 (cell material: Jurkat lysate) was determined as 4.89; at UniProt Q14164 (cell material: Lysate mix) it was 5.25.
`CCNC(=O)c1cc(Nc2cc(C3CC3)[nH]n2)nc(N2CCN(Cc3ccc(S(=O)(=O)F)cc3)CC2)n1`: the negative logarithm of the IC50 (pIC50) at SGK2 is 5.7; at UniProt Q99759 (cell material: Lysate mix) it was 5.08; on CDK4 it was 5.05; on UniProt Q14164 (cell material: Lysate mix), 5.08.
With `C#CCNC(=O)c1cc(Nc2cc(C)[nH]n2)nc(N2CCN(Cc3ccc(S(=O)(=O)F)cc3)CC2)n1`, the pIC50 at IRAK3 is less than 4.52; at SGK2, 5.8; on UniProt Q99759 (cell material: Lysate mix), less than 4.52; on UniProt Q14164 (cell material: Lysate mix), less than 4.52.
In the case of `O=C(NCCNC(=O)c1cc(Nc2cc(C3CC3)[nH]n2)nc(N2CCN(Cc3ccc(S(=O)(=O)F)cc3)CC2)n1)OC1CC/C=C/CCC1` (stereo not given), the negative-log IC50 (pIC50) on IRAK3 is less than 4.52; on UniProt Q99759 (cell material: Jurkat cells) it was 4.88; at UniProt Q99759 (cell material: Jurkat lysate), less than 4.52; on UniProt Q99759 (cell material: Lysate mix) it was less than 4.52; on UniProt Q14164 (cell material: Jurkat cells), 5.28; on UniProt Q14164 (cell material: Jurkat lysate), less than 4.52. Also, the negative logarithm of the IC50 (pIC50) on UniProt Q14164 (cell material: Lysate mix) was less than 4.52.
In the case of `CCNC(=O)c1cc(Nc2cc(C)[nH]n2)nc(N2CCN(Cc3ccc(S(=O)(=O)F)cc3)CC2)n1`, the figures for the pIC50 at SGK2, at UniProt Q99759 (cell material: Lysate mix) and on CDK4 were 5.46, less than 4.52 and less than 4.52, respectively.

The values above are taken from the supplement of paper PMC12076712.
